Results from publication PMC9611092 (Viruses, 2022).
Read-outs that look alike come from different tables or passages of the source.

Experiments:
[1] = system: SARS-CoV-2 Wuhan lineage B, hCoV-19/Australia/VIC01/2020 (EPI_ISL_406844); assay: microbe, parasite or virus in culture; assay type: cell-based; conditions: for IC50: Severe acute respiratory syndrome coronavirus 2, Vero C1008, 96 h
[2] = Cytotoxicity of compounds on HEK293T cells (MTT); assay type: cell-based; conditions: human
[3] = system: lentiviral particles exhibiting S protein of SARS-CoV-2; assay: microbe, parasite or virus in culture; assay type: cell-based; conditions: for inhibition at 25 µM: Severe acute respiratory syndrome coronavirus 2, 48 h, read-out: % Neutralization at 25 µM
[4] = in vitro; conditions: African green monkey
[5] = system: main viral protease 3CLPro; conditions: cited from earlier work; for active against 3CLPro at a dose of: range for the four flavonoids
[6] = system: SARS-CoV-2 Delta lineage B.1.617.2, hCoV-19/Russia/PSK-2804/2021; assay: microbe, parasite or virus in culture; assay type: cell-based; conditions: for IC50: Severe acute respiratory syndrome coronavirus 2, Vero C1008, 96 h
[7] = system: SARS-CoV-2 Omicron lineage B.1.1.529, hCoV-19/Russia/Moscow171619-031221/2021; assay: microbe, parasite or virus in culture; assay type: cell-based; conditions: Severe acute respiratory syndrome coronavirus 2, Vero C1008, 96 h
[8] = molecular target: main protease (3CLpro) of SARS-CoV-2 (Severe acute respiratory syndrome coronavirus 2, UniProt P0DTD1); assay: biochemical
[9] = HEK293T cells, 72 h, MTT, read-out: CC50
[10] = Severe acute respiratory syndrome coronavirus 2

SMILES	IC50 [1] [µM]	CC50 at 72 h [2] [µM]	inhibition at 25 µM [3] [%]	CC50 at 4 days [4] [µM]	IC50 [3, 10] [µM]	IC50 [6] [µM]	IC50 [7] [µM]	other results
CC(=O)C1=C(O)C=C2Oc3c(C(=O)CSC(C)C(=O)O)c(O)c(C)c(O)c3[C@@]2(C)C1=O (mixture of isomers) [Compound 5b, (2S)-2-({2-[(1R)-12-acetyl-3,5,11-trihydroxy-1,4-dimethyl-13-oxo-8-oxatricyclo[7.4.0.0^2,7]trideca-2(7),3,5,9,11-pentaen-6-yl]-2-oxoethyl}sulfanyl)propanoic acid and (2R)-2-({2-[(1R)-12-acetyl-3,5,11-trihydroxy-1,4-dimethyl-13-oxo-8-oxatricyclo [7.4.0.0^2,7]trideca-2(7),3,5,9,11-pentaen-6-yl]-2-oxoethyl}sulfanyl)propanoic acid (1:1)]	76.5 ± 8.2	> 1000	41	176 ± 22.6				antiviral activity (in words) [1]: low activity; melting point: 91 to 95 °C
COc1ccc(-c2cc(=O)c3c(O)c(O)c(O)cc3o2)cc1 [4′-O-methylscutellarein]								activity against the main protease (in words) [5]: submicromolar
CCOC(=O)c1c(CSc2ccccc2)n(C)c2cc(Br)c(O)c(CN(C)C)c12 [Arbidol, reference compound]			58		12.6 ± 4.1			CC50 at 72 h [2, 9]: 19.8 ± 4.6 µM
CC(=O)C1=C(O)C=C2Oc3c(C(C)=O)c(O)c(C)c(O)c3[C@@]2(C)C1=O [Compound 1, (R)-(+)-Usnic acid]	10.9 ± 2.2		12			20.9 ± 3.4	3.7 ± 0.8	inhibition of the main protease (in words) [8]: not an inhibitor; CC50 at 72 h [2, 9]: > 1000 µM; activity against the pseudovirus system (in words) [3]: is not an entry inhibitor; CC50 [4]: 147 ± 22.1 µM
CC(=O)c1c(O)c(C)c(O)c2c1OC1=Cc3onc(C)c3C(=O)[C@@]12C [Compound 2]		> 1000	55	252 ± 31	30 ± 2.9			antiviral activity (in words) [1]: did not exhibit antiviral activity at all; In Vitro (Pseudotype-Based Assay) [3]: yes
CC(=O)c1c(O)c(C)c(O)c2c1OC1=CC(=O)c3c(C)noc3[C@@]12C [Compound 3]	9.2 ± 2.4	150 ± 18.5	65	15.5 ± 2.8	32 ± 5.1	9.1 ± 1.8	3.5 ± 1.1	
CC(=O)C1=C(O)C=C2Oc3c(C(=O)CSCCC(=O)O)c(O)c(C)c(O)c3[C@@]2(C)C1=O [Compound 5a]		> 1000	0	177 ± 18.2				antiviral activity (in words) [1]: no antiviral activity at all; activity against the pseudovirus system (in words) [3]: no activity
CC(=O)C1=C(O)C=C2Oc3c(C(C)=O)c(O)c(C)c(O)c3[C@@]2(C)[C@@H]1O [Compound 6]	65.3 ± 7.4		40					IC50 [8]: 112 µM; CC50 at 72 h [2, 9]: 168 ± 21.2 µM; CC50 [4]: 99 ± 12.1 µM
CC(=O)c1c(O)c(C)c(O)c2c1OC1=CC(=O)/C(=C(/C)N)C(=O)[C@@]12C [Compound 7]		850 ± 22.6	12	528 ± 16				antiviral activity (in words) [1]: has no antiviral activity at all; IC50 [8]: ~200 µM
CC(=O)C1=C(O)C=C2Oc3c4c(c(C)c(O)c3[C@@]2(C)C1=O)OCC4=O [Compound 8]	44.3 ± 5.2	358 ± 31.1	0	176 ± 19.9		95 ± 8.7	47 ± 6.5	antiviral activity (in words) [6]: almost no activity; IC50 [8]: ~200 µM; activity against the pseudovirus system (in words) [3]: no activity
CC(=O)C1=C(O)C=C2Oc3c(C(=O)CO)c(O)c(C)c(O)c3[C@@]2(C)C1=O [Compound 10, (2R)-4-acetyl-5,11,13-trihydroxy-10-(2-hydroxyacetyl)-2,12-dimethyl-8-oxatricyclo[7.4.0.0^2,7]trideca-1(9),4,6,10,12-pentaen-3-one]	25.3 ± 2.1	750 ± 36.6	45	306 ± 28.6		9.7 ± 1.4	17.5 ± 3.8	IC50 [8]: ~200 µM; melting point: 107 to 110 °C
CC(=O)C1=C(O)C[C@H]2Oc3c(C(C)=O)c(O)c(C)c(O)c3[C@@]2(C)C1=O [Compound 11, (2R,7R)-4,10-diacetyl-5,11,13-trihydroxy-2,12-dimethyl-8-oxatricyclo [7.4.0.0^2,7]trideca-1(9),4,10,12-tetraen-3-one]	21 ± 3.5	469 ± 24.2	78	84.9 ± 12.1	22 ± 3.2			
CCC1=C(O)C[C@H]2Oc3c(C(C)=O)c(O)c(C)c(O)c3[C@@]2(C)C1=O [Compound 12, (2R,7R)-10-acetyl-4-ethyl-5,11,13-trihydroxy-2,12-dimethyl-8-oxatricyclo[7.4.0.0^2,7]trideca-1(13),4,9,11-tetraen-3-one]	91 ± 7.1	> 1000	53	262 ± 32	28 ± 3.7	85 ± 11.2	60 ± 12.1	melting point: 58 to 62 °C
CC(=O)c1c(O)c(C)c(O)c2c1O[C@@H]1CC/C(=C(/C)O)C(=O)[C@]21C [Compound 13, (2R,4E,7R)-10-acetyl-11,13-dihydroxy-4-(1-hydroxyethylidene)-2,12-dimethyl-8-oxatricyclo [7.4.0.0^2,7] trideca-1(13),9,11-trien-3-one]	6.7 ± 1.4	151 ± 14.9	95	72.7 ± 14.6	5.3	13.5 ± 2.1	6.6 ± 1.9	IC50 [3]: 5.28 ± 0.8 µM; melting point: 100 to 103 °C
CC(=O)c1c(O)c(C)c(O)c2c1O[C@@H]1Cc3onc(C)c3C(=O)[C@]21C [Compound 14, (1R,9R)-6-acetyl-3,5-dihydroxy-1,4,14-trimethyl-8,12-dioxa-13-azatetracyclo[7.7.0.0^2,7.0^11,^1⁵]hexadeca-2(7),3,5,11(15),13-pentaen-16-one]		> 1000	15	296 ± 11.9				antiviral activity (in words) [1]: does not exhibit antiviral properties; melting point: 152 to 156 °C
O=C1c2c(O)cc(O)cc2O[C@H](c2cc(O)c(O)c(O)c2)[C@H]1O [Dihydromyricetin]								active against 3CLPro at a dose of [5]: 1.2 to 5.8 µM
O=c1c(O)c(-c2cc(O)c(O)c(O)c2)oc2cc(O)cc(O)c12 [Myricetin]								active against 3CLPro at a dose of [5]: 1.2 to 5.8 µM
O=c1c(O)c(-c2ccc(O)c(O)c2)oc2cc(O)c(O)c(O)c12 [Quercetagetin]								active against 3CLPro at a dose of [5]: 1.2 to 5.8 µM
CCC(CC)COC(=O)[C@H](C)N[P@](=O)(OC[C@H]1O[C@@](C#N)(c2ccc3c(N)ncnn23)[C@H](O)[C@@H]1O)Oc1ccccc1 [Remdesivir, reference compound]	3.8 ± 0.42					2.1 ± 0.16	2 ± 0.13	CC50 [4]: 711 ± 21.2 µM
O=c1cc(-c2ccc(O)cc2)oc2cc(O)c(O)c(O)c12 [Scutellarein]								active against 3CLPro at a dose of [5]: 1.2 to 5.8 µM
